In patent US8058008B2, “Method for extracting quantitative information relating to an influence on a cellular response” (Fisher Bioimage APS, priority 1997, dated 2011):

Experiments:
[1] = tested on: actin-binding-domain-EGFP fusion; assay: Actin-binding-domain-EGFP redistribution in CHO cells expressing the human insulin receptor; format: cell-based; conditions: insulin stimulation
Excerpt: The actin binding domain of the human alpha-actinin gene (GenBank Accession number: X15804) was amplified using PCR according to standard protocols with primers ABD-top (SEQ ID NO:90) and ABD-bottom/−stop (SEQ ID NO:91). The PCR product was digested with restriction enzymes Hind3 and BamH1, and ligated into pEGFP-N 1 (Clontech, Palo Alto; GenBank Accession number U55762) digested with Hind3 and BamH1. This produced an actin-binding-domain-EGFP fusion (SEQ ID NO:128 &129) under the control of a CMV promoter.
The resulting plasmid was transfected into CHO cells expressing the human insulin receptor.

[2] = tested on: PKAc-F64L-S65T-GFP fusion; assay: PKAc-F64L-S65T-GFP redistribution in stably transfected CHO cells (fluorescence microscopy, image analysis); format: cell-based, murine
Description: The catalytic subunit of the murine cAMP dependent protein kinase (PKAc) was fused C-terminally to a F64L-S65T derivative of GFP. The resulting fusion (PKAc-F64L-S65T-GFP) was used for monitoring in vivo the translocation and thereby the activation of PKA.
Untransfected CHO cells were used as the control. […] Expression of GR was maintained with 500 mg G418/ml (Neo marker) and PKAc-F64L-S65T-GFP was maintained with 500 mg Zeocin/ml (Sh ble marker). CHO cells were also simultaneously co-transfected with vectors containing the PKAc-F64L-S65T-GFP fusion and the human a2a adrenoceptor (hARa2a).
For fluorescence microscopy, cells were allowed to adhere to Lab-Tek chambered cover-glasses (Nalge Nunc Int., Naperville, Ill., USA) for at least 24 hours and cultured to about 80% confluence. Prior to experiments, the cells were cultured over night without selection pressure in HAM F-12 medium with glutamax (Life Technologies), 100 mg penicillin-streptomycin mixture ml^−1 and 0.3% FBS. This medium has low autofluorescence enabling fluorescence microscopy of cells straight from the incubator.
The cells were illuminated with a 100 W HBO arc lamp.
Method 1: Stepwise Procedure for Quantitation of Translocation of PKA:
3. The image histogram, i.e., the frequency of occurrence of each intensity value in the image, was calculated.
4. A smoothed, second derivative of the histogram was calculated and the second zero is determined. […]
5. The value determined in step 4 was subtracted from the image. […]
6. The variance (square of the standard deviation) of the remaining pixel values was determined. […]
Method 2: Alternative Method for Quantitation of PKA Redistribution:
1. […] The area of each image occupied by the aggregates is calculated by counting pixels in the segmented areas. […] A value of zero (0) indicates no redistribution of fluorescence from the starting condition. […]
As described above, the time it took for a response to come to completion was dependent on the forskolin dose (FIG. 5) In addition the degree of responses was also dose dependent. […] The amount of cAMP produced was measured in an SPA assay. […]

[3] = molecular target: T1, PKA-F64L-S65T-GFP probe / human a2a adrenoceptor (hARa2a) (Homo sapiens, UniProt P08913); assay: PKAc-F64L-S65T-GFP redistribution in transiently transfected CHO cells expressing hARa2a; format: cell-based, murine; conditions: 10 mM norepinephrine after 10 mM forskolin for 7.5 minutes, forskolin still present
T1 construct: expressed in transfected cells; host or cells: CHO, transient co-transfection
T1 sequence (P08913 1-465): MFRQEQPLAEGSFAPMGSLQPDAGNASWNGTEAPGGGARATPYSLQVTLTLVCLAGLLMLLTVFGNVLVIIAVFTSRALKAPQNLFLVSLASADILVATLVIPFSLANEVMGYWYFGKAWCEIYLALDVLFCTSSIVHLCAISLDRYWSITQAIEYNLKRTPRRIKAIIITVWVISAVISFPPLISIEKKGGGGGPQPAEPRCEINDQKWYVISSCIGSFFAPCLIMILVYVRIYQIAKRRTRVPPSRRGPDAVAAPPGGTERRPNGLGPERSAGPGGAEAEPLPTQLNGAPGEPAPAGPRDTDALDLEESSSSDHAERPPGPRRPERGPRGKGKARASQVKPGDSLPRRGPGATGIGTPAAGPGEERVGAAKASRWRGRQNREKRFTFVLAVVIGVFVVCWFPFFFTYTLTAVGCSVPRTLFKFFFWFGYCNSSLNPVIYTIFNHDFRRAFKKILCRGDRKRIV
Description: Transiently transfected CHO cells expressing hARa2a and the PKA-F64L-S65T-GFP probe were treated with 10 mM forskolin for 7.5 minutes, then, in the continued presence of forskolin, exposed to 10 mM norepinephrine to stimulate the exogenous adrenoreceptors, which couple to a Gi protein, which inhibit adenylate cyclase.

[4] = tested on: cAMP; assay: Scintillation proximity assay (SPA) of cAMP produced in CHO cells; format: cell-based, Chinese hamster; conditions: 8 concentrations 0.01-50 mM (n=4), 100 mM IBMX, 10 min
Description: 7. Scintillation proximity assay (SPA) for independent quantitation of cAMP:
Cells were cultured in HAM F-12 medium as described above, but in 96-well plates. The medium was exchanged with Ca^2+-HEPES buffer including 100 mM IBMX and the cells were stimulated with different concentrations of forskolin for 10 min. Reactions were stopped with addition of NaOH to 0.14 M and the amount of cAMP produced was measured with the cAMP-SPA kit, RPA538 (Amersham) as described by the manufacturer.
As described above, the time it took for a response to come to completion was dependent on the forskolin dose (FIG. 5) In addition the degree of responses was also dose dependent. To test the PKA-F64L-S65T-GFP fusion protein translocation in a semi high through-put system, CHO cells stably transfected with the PKA-F64L-S65T-GFP fusion was stimulated with buffer and 5 increasing doses of forskolin (n=8). […] In parallel, cells were stimulated with buffer and 8 increasing concentrations of forskolin (n=4) in the range 0.01-50 mM. The amount of cAMP produced was measured in an SPA assay. A steep increase was observed between 1 and 5 mM forskolin coincident with the steepest part of the curve for fusion protein translocation (also FIG. 6)

[5] = tested on: EGFP-Erk1 fusion; assay: EGFP-Erk1 nuclear translocation in HEK293 cells; format: cell-based, human
Excerpt: b) The human Erk1 gene (GenBank Accession number: X60188) was amplified using PCR according to standard protocols with primers Erk1-top (SEQ ID NO:9) and Erk1-bottom/+stop (SEQ ID NO:10). The PCR product was digested with restriction enzymes EcoR1 and BamH1, and ligated into pEGFP-C1 (Clontech, Palo Alto; GenBank Accession number U55763) digested with EcoR1 and BamH1. This produces an EGFP-Erk1 fusion (SEQ ID NO:38 &39) under the control of a CMV promoter.
The plasmid containing the EGFP-Erk1 fusion was transfected into HEK293 cells employing the FUGENE transfection reagent (Boehringer Mannheim). Prior to experiments the cells were grown to 80%-90% confluency 8 well chambers in DMEM with 10% FCS. […] Just before starting the experiment, the HAM F-12 was replaced with Hepes buffer following a wash with Hepes buffer. This removes the PD98059 inhibitor; if blocking of MEK1 is still wanted (e.g. in control experiments), the inhibitor is included in the Hepes buffer.
The experimental setup of the microscope was as described in example 1.
60 images were collected with 10 seconds between each, and with the test compound added after image number 10.
Redistribution of GFP fluorescence is expressed in this example as the change in the ratio value between areas in nuclear versus cytoplasmic compartments of the cell. Each time profile is the average of nuclear to cytoplasmic ratios from six cells in each treatment.

insulin
redistribution of actin binding domain-EGFP probe [1]: redistributed into morphologically distinct membrane-associated structures

CCCC(=O)Nc1ncnc2c1ncn2[C@@H]1O[C@@H]2COP(=O)(O)O[C@H]2[C@H]1OC(=O)CCC [dbcAMP]
translocation of the fusion protein ([2]; 1, 10 and 50 mM forskolin, dbcAMP at 1 mM): dramatic translocation of the fusion protein from a punctate distribution to an even distribution throughout the cytoplasm

NC[C@H](O)c1ccc(O)c(O)c1 [norepinephrine]
localisation of fluorescence, indicative of a decrease in [cAMP]i [3]: reappearance of fluorescence in the cytoplasmic aggregates

CC(C)Cn1c(=O)n(C)c(=O)c2[nH]cnc21 [IBMX]
temporal profile of fusion protein redistribution compared with forskolin ([2]; 1 mM dbcAMP, 100 mM IBMX, no adenylate cyclase stimulation): slow response
return of fusion protein to prestimulatory localization after removal of forskolin ([2]; 10 mM forskolin and 100 mM IBMX, then washed 5-8 times with buffer containing 100 mM IBMX): did not return to its prestimulatory localization

C=C[C@@]1(C)CC(=O)[C@]2(O)[C@@]3(C)[C@@H](O)CCC(C)(C)[C@@H]3[C@H](O)[C@H](OC(C)=O)[C@@]2(C)O1 [forskolin, Forskolin]
forskolin concentration range of steep increase in amount of cAMP produced [4]: 1 to 5 mM

COc1cccc(-c2cc(=O)c3ccccc3o2)c1N [PD98059]
effect on nuclear EGFP-Erk1 ([5]; 100 micromolar PD98059, 30-60 minutes in plain HAM F-12 without FCS): effectively empties the nucleus of EGFP-Erk1

EGF: growth factor added to activate the MAPK pathway and Erk1 nuclear translocation (NSDSECPLSHDGYCLHDGVCMYIEALDKYACNCVVGYIGERCQYRDLKWWELR; UniProt P01133 971-1023, looked up)
redistribution of EGFP-Erk1 ([5]; EGF 1-100 nM, within minutes): redistribution of EGFP-Erk1 from the cytoplasm into the nucleus
relationship between concentration and nuclear translocation of EGFP-Erk1 ([5]; change in nuclear to cytoplasmic ratio, six cells per treatment): dose-dependent relationship
